Measurements reported in the supplement of paper PMC10307832.

Legend:
Experiment in all cases: relative viability (nuclei count vs DMSO), 5 days (fraction); higher = more cells survive
EHT 1864 + Pemetrexed = compound: C1COCCN1CC2=CC(=O)C(=CO2)OCCCCCSC3=C4C=CC(=CC4=NC=C3)C(F)(F)F [EHT 1864] + Nc1nc2[nH]cc(CCc3ccc(C(=O)N[C@@H](CCC(=O)O)C(=O)O)cc3)c2c(=O)[nH]1 [Pemetrexed] (partner 0.2 µM)
Summary of the method: (§1)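 Five library-drug doses in √10 steps were combined with a fixed anchor-drug dose, or a single drug was given alone, by pin tool to lung cancer cell lines in 1536-well plates the day after seeding. Nuclei were stained and counted after 5 days. Relative viability is the nuclei count in treated wells over that in vehicle wells, taken as the median of duplicate plates.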

EHT 1864 + Lapatinib = compound: C1COCCN1CC2=CC(=O)C(=CO2)OCCCCCSC3=C4C=CC(=CC4=NC=C3)C(F)(F)F [EHT 1864] + CS(=O)(=O)CCNCc1ccc(-c2ccc3ncnc(Nc4ccc(OCc5cccc(F)c5)c(Cl)c4)c3c2)o1 [Lapatinib] (partner 2 µM)
Summary of the method: as §1

EHT 1864 + Crizotinib = compound: C1COCCN1CC2=CC(=O)C(=CO2)OCCCCCSC3=C4C=CC(=CC4=NC=C3)C(F)(F)F [EHT 1864] + C[C@@H](Oc1cc(-c2cnn(C3CCNCC3)c2)cnc1N)c1c(Cl)ccc(F)c1Cl [Crizotinib] (partner 1 µM)
Summary of the method: as §1

EHT 1864 + Dasatinib = compound: C1COCCN1CC2=CC(=O)C(=CO2)OCCCCCSC3=C4C=CC(=CC4=NC=C3)C(F)(F)F [EHT 1864] + Cc1nc(Nc2ncc(C(=O)Nc3c(C)cccc3Cl)s2)cc(N2CCN(CCO)CC2)n1 [Dasatinib] (partner 0.075 µM)
Summary of the method: as §1

| Cell Line | relative viability (EHT 1864 + Pemetrexed; first compound 0.04 µM) | relative viability (EHT 1864 + Pemetrexed; first compound 0.1265 µM) | relative viability (EHT 1864 + Pemetrexed; first compound 0.4 µM) | relative viability (EHT 1864 + Pemetrexed; first compound 1.265 µM) | relative viability (EHT 1864 + Pemetrexed; first compound 4 µM) | relative viability (EHT 1864 + Lapatinib; first compound 0.04 µM) | relative viability (EHT 1864 + Lapatinib; first compound 0.4 µM) | relative viability (EHT 1864 + Lapatinib; first compound 1.265 µM) | relative viability (EHT 1864 + Lapatinib; first compound 4 µM) | relative viability (EHT 1864 + Crizotinib; first compound 0.04 µM) | relative viability (EHT 1864 + Crizotinib; first compound 0.4 µM) | relative viability (EHT 1864 + Crizotinib; first compound 1.265 µM) | relative viability (EHT 1864 + Crizotinib; first compound 4 µM) | relative viability (EHT 1864 + Dasatinib; first compound 0.04 µM) | relative viability (EHT 1864 + Dasatinib; first compound 0.1265 µM) | relative viability (EHT 1864 + Dasatinib; first compound 0.4 µM) | relative viability (EHT 1864 + Dasatinib; first compound 1.265 µM) | relative viability (EHT 1864 + Dasatinib; first compound 4 µM) | relative viability (EHT 1864 + Lapatinib; first compound 0.1265 µM) | relative viability (EHT 1864 + Crizotinib; first compound 0.1265 µM) |
| --- | --- | --- | --- | --- | --- | --- | --- | --- | --- | --- | --- | --- | --- | --- | --- | --- | --- | --- | --- | --- |
| LCLC-97TM1 | 0.205 | 0.15 | 0.169 | 0.185 | 0.15 | 1.03 | 0.527 | 1.22 | 1.12 | 0.399 | 0.42 | 0.442 | 0.285 | 0.888 | 0.748 | 0.828 | 0.727 | 0.8 |  |  |
| HARA | 0.27 |  | 0.267 | 0.3 | 0.234 | 0.718 | 0.688 | 0.706 | 0.758 | 0.964 | 1.08 | 1.04 | 0.902 | 0.236 | 0.246 | 0.207 | 0.19 | 0.255 | 0.702 | 1 |
| HCC-78 | 0.868 | 0.866 | 0.823 | 0.889 | 0.937 | 0.875 | 0.382 | 0.345 | 1.05 | 0.349 | 0.353 | 0.342 | 0.319 | 0.365 | 0.367 | 0.357 | 0.338 | 0.337 | 0.525 | 0.32 |
| NCI-H1666 | 1.02 | 0.831 | 0.896 | 0.786 | 0.843 | 0.822 | 0.584 | 0.775 | 0.841 | 0.771 | 1.2 | 0.965 | 1.01 | 0.86 | 0.805 | 0.746 | 0.745 | 0.795 | 0.484 | 0.867 |
| NCI-H2347 | 0.402 | 0.403 | 0.459 | 0.465 | 0.419 | 0.961 | 0.814 | 0.793 | 1.12 | 0.693 | 0.715 | 0.709 | 0.868 | 0.358 | 0.251 | 0.308 |  | 0.332 | 0.638 | 0.518 |
| NCI-H838 | 0.249 | 0.236 | 0.236 | 0.233 | 0.219 | 0.91 | 0.979 | 0.938 | 0.932 | 0.74 | 0.911 | 0.826 | 0.802 | 0.207 | 0.252 | 0.304 | 0.277 | 0.269 | 0.799 | 0.724 |
| NCI-H2023 | 0.232 | 0.258 | 0.166 | 0.201 | 0.197 | 0.813 | 0.727 | 0.919 | 0.84 | 0.675 | 0.632 | 0.666 | 0.617 | 0.568 | 0.628 | 0.508 | 0.517 | 0.577 | 0.558 | 0.714 |
| 201T | 0.346 | 0.326 | 0.351 | 0.266 | 0.291 | 1.07 | 1.07 | 1.01 | 1.01 | 1.05 | 1 | 0.984 | 1 | 0.563 | 0.587 | 0.589 | 0.473 | 0.528 | 1 | 1.03 |
| NCI-H1915 | 0.474 |  | 0.52 | 0.5 | 0.477 | 1.03 | 0.993 | 0.937 | 0.902 | 0.86 | 0.922 | 0.87 | 0.887 | 0.309 |  | 0.296 | 0.338 | 0.282 |  |  |
| NCI-H2009 | 1.01 | 0.95 | 1.01 | 0.965 | 0.809 | 0.77 | 0.921 | 0.963 | 0.824 | 0.978 | 1.08 | 0.962 | 0.711 | 0.259 | 0.258 | 0.323 | 0.241 | 0.251 | 0.749 | 1.01 |
| BEN | 0.763 | 0.678 | 0.908 | 0.697 | 0.715 | 0.811 | 0.671 | 0.556 | 0.666 | 0.979 | 0.753 | 0.885 | 0.964 | 0.384 | 0.279 | 0.377 | 0.308 | 0.36 | 0.638 | 0.775 |
| PC-14 | 0.121 | 0.124 | 0.137 | 0.133 | 0.133 | 0.316 | 0.325 | 0.294 | 0.272 | 0.966 | 0.832 | 0.865 | 0.899 | 0.257 | 0.276 | 0.279 | 0.26 | 0.195 | 0.28 | 0.962 |
| NCI-H1793 | 0.674 | 0.699 | 0.929 | 0.814 | 0.828 |  | 0.667 | 0.602 | 0.638 |  |  |  |  | 0.307 |  | 0.304 |  | 0.419 | 0.543 |  |
| NCI-H727 |  |  |  |  |  | 0.841 | 0.635 |  | 0.881 | 0.803 | 0.699 |  | 0.786 | 0.397 | 0.334 | 0.344 | 0.371 | 0.343 | 0.743 | 0.713 |
| NCI-H1355 | 1.14 | 0.872 | 1.02 | 1.1 | 0.985 | 1.02 | 0.889 | 1.02 | 1.04 | 1.12 | 1.06 | 1.07 | 1.03 | 0.676 | 0.535 | 0.73 | 0.561 | 0.725 | 0.819 | 0.875 |
| NCI-H1975 | 0.271 | 0.28 | 0.274 | 0.291 | 0.285 | 0.868 | 0.802 | 0.837 | 0.856 | 0.967 | 0.946 | 0.851 | 0.84 | 0.361 | 0.292 | 0.426 |  | 0.331 | 0.9 | 0.987 |
| LK-2 | 0.305 |  | 0.259 | 0.288 | 0.25 | 1.05 | 0.911 | 1.03 | 0.881 | 0.232 | 0.225 | 0.241 | 0.221 | 0.36 |  | 0.353 | 0.246 | 0.257 | 0.797 | 0.23 |
